Measured values taken from US11638716B2, “Compounds, compositions, and methods for the treatment of disease” (F-star Therapeutics, Inc., priority 2017, dated 2023).

Experiments:
Assay type in all cases: cell-based
NF-κβ = experiment: In vitro induction of NF-κβ in THP1 dual cells (SEAP reporter)
Procedure: (§1) Example 2. In Vitro Induction of IRF and NF-κβ in THP1 Cells
(§2) THP1 dual cells grown in complete media were treated with various concentrations of a compound of the present disclosure or DMSO control. Dual cells carry both secreted embryonic alkaline phosphatase (SEAP) reporter gene under the control of an IFN-β minimal promoter fused to five copies of the NF-kB consensus transcriptional response element to measure NF-kB activity and Lucia reporter gene under the control of an ISG54 minimal promoter to measure IRF activity. After 20 h incubation, IRF activity was assessed using QUANTI-luc to measure levels of Lucia and NF-kB activity was determined by measure SEAP levels at 620-655 nm. % induction was calculated from fold change in luminescence/absorbance compared to DMSO treated sample. […] EC50 values were generated by curve fit in Xlfit.
(§3) Cells grown in complete media were treated with various concentrations of a compound of the disclosure or DMSO control. Dual cells carry both secreted embryonic alkaline phosphatase (SEAP) reporter gene under the control of an IFN-β minimal promoter fused to five copies of the NF-kB consensus transcriptional response element to measure NF-kB activity and Lucia reporter gene under the control of an ISG54 minimal promoter to measure IRF activity. After 20 h incubation, IRF activity was assessed using QUANTI-luc to measure levels of Lucia and NF-kB activity was determined by measure SEAP levels at 620-655 nm. % induction was calculated from fold change in luminescence/absorbance compared to DMSO treated sample. EC50 values are generated by curve fit in Xlfit.

STING KO cells = experiment: IRF and NF-kB reporter activity in STING KO cells; conditions: 20 hours
Procedure: (§4) FIG. 21 depicts cells stably expressing both or either one of the reporters to measure IRF and NF-kB activity were treated with a range of concentrations of compound 1 or DMSO control for 20 hours. IRF activity was assessed using QUANTI-luc to measure levels of Lucia and NF-kB activity was determined by measure SEAP levels at 620-655 nm. % induction was calculated from fold change in luminescence/absorbance compared to DMSO treated sample. EC50 values are generated by curve fit in Xlfit.
as §4, with “22” for “21”, “2” for “1”
as §4, with “24” for “21”, “3” for “1”
as §4, with “27” for “21”, “4” for “1”
as §3

IRF = experiment: In vitro induction of IRF in THP1 dual cells (Lucia reporter, ISG54 promoter)
Procedure: as §1, §2, §3

[1] = tested on: RAW-Lucia-ISG-STING KO cells; experiment: IRF-type I IFN secreted luciferase in RAW-Lucia-ISG-STING KO cells; conditions: compound alone, 19 hours
Procedure: FIG. 4 depicts RAW-Lucia-ISG-WT and RAW-Lucia-ISG-STING KO cells were stimulated with compound 2 or compound 4, alone for 19 hours. Activity of secreted luciferase (IRF-type I IFN activity) in cell culture supernatant was measured using Invivogen's Quanti-luc. Data is shown as fold induction over DMSO treated cells (mean±standard deviation of triplicate wells per stimulant). EC50 values were calculated using XLfit.

wt-mSTING = molecular target: T1, wt-mSTING (Mus musculus, UniProt Q3TBT3); experiment: IRF/NF-kB reporter cells, wt-mSTING; conditions: 20 hours
T1 construct: endogenous in cells
T1 sequence (Q3TBT3 1-378): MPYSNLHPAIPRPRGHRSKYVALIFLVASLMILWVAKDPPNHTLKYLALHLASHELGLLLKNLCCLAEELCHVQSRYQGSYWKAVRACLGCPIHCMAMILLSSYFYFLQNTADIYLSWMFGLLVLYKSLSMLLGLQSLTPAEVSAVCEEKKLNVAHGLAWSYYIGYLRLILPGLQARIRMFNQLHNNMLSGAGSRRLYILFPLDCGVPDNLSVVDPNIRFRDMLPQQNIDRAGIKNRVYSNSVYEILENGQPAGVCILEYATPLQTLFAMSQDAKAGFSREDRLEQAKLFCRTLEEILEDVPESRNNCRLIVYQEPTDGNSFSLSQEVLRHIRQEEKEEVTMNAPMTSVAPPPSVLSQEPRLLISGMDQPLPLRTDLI
Procedure: as §4, with “22” for “21”, “2” for “1”
as §4, with “24” for “21”, “3” for “1”
as §4, with “27” for “21”, “4” for “1”
(§5) Cells grown in complete media were treated with various concentrations of a compound of the disclosure or DMSO control. […] After 20 h incubation, IRF activity was assessed using QUANTI-luc to measure levels of Lucia and NF-kB activity was determined by measure SEAP levels at 620-655 nm. % induction was calculated from fold change in luminescence/absorbance compared to DMSO treated sample. […]

wild type STING = molecular target: T2, wild type STING (Homo sapiens, UniProt Q86WV6, H232R); experiment: IRF/NF-kB reporter cells, wild type STING; conditions: 20 hours
T2 construct: expressed in transfected cells; host or cells: THP1-Dual-KI-STING-R232 (made from THP-Dual-STING KO cells)
T2 sequence (Q86WV6 whole entry H232R): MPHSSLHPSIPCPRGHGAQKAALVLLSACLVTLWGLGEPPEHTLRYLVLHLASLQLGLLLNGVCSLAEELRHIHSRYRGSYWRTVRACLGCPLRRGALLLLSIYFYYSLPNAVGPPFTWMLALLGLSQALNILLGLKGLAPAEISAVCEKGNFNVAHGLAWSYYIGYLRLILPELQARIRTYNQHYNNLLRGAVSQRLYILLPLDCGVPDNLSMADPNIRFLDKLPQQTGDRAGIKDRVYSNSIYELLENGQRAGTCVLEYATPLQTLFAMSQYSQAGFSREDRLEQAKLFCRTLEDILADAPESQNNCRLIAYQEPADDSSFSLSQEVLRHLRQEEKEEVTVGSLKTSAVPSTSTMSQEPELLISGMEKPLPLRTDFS
Procedure: as §4, with “22” for “21”, “2” for “1”
as §4, with “24” for “21”, “3” for “1”
as §4, with “27” for “21”, “4” for “1”
as §5

[2] = tested on: mouse bone marrow derived dendritic cells (DCs) and macrophages; experiment: ISG gene expression (Taqman) in mouse bone marrow derived dendritic cells and macrophages; conditions: 20 hours
Procedure: FIG. 23 depicts cryopreserved mouse bone marrow derived dendritic cells (DCs) and macrophages treated with a range of concentrations of compound 2 or DMSO control for 20 hours. Cell pellets were harvested to collect total RNA. The gene expression levels of ISGs were measured by Taqman Assays.

[3] = molecular target: T3, R71H-G230A-R293Q (HAQ) variant of hSTING (Homo sapiens, UniProt Q86WV6, G230A/H232R/R293Q/R71H); experiment: IRF/NF-kB reporter cells, STING HAQ variant; conditions: 20 hours
T3 construct: THP1-Dual-WT cells express STING-HAQ variant; endogenous in cells; host or cells: THP1-Dual-WT cells
T3 sequence (Q86WV6 whole entry R71H/G230A/H232R/R293Q): as the sequence (Q86WV6 whole entry H232R) above, with R71H, G230A, R293Q counted along it
Procedure: as §4, with “22” for “21”, “2” for “1”
as §4, with “24” for “21”, “3” for “1”
as §4, with “27” for “21”, “4” for “1”
as §5

[4] = Homo sapiens, THP-1, 20 h incubation

EC50 (NF-κβ; [4]) | EC50 (IRF; [4]) | SMILES | IRF activity in STING KO cells (STING KO cells) | NF-κβ in STING KO cells (STING KO cells) | STING dependence of activity (STING KO cells) | IRF activity in STING KO cells [1] | activity against wt-mSTING (wt-mSTING) | activity against wild type STING (wild type STING) | ISG expression [2] | EC50 (NF-κβ; 20 h incubation) | activity against R71H-G230A-R293Q (HAQ) variant of hSTING [3] | EC50 (IRF; 20 h incubation)
> 2000 nM | > 2000 nM | Nc1ncnc2c1ncn2[C@@H]1O[C@@H]2COP(=O)(O)O[C@H]3[C@@H](F)[C@H](n4ccc(=O)[nH]c4=O)O[C@@H]3COP(=O)(O)O[C@@H]1[C@@H]2F [Compound 1] | did not induce | did not induce | possess STING dependent activity |  |  |  |  |  |  | 
 |  | CCCCCCCCCCOc1ccc(C(=O)Oc2ccc(CSP3(=O)OC[C@H]4O[C@@H](n5cnc6c(N)ncnc65)[C@H](OP(=O)(O)OC[C@H]5O[C@@H](n6ccc(=O)[nH]c6=O)[C@H](F)[C@@H]5O3)[C@@H]4F)cc2)cc1 (some centres unmarked) [Compound 2] | did not induce | did not induce |  | Neither compound induced IRF activity | possess activity | possess activity | induces ISG expression | 1000 to 2000 nM | possess activity | < 50 nM
